Columns and labels:
[1] = molecular target: T1, Muscarinic acetylcholine receptor M4 (Homo sapiens, UniProt P08173)
T1 sequence (P08173 whole entry): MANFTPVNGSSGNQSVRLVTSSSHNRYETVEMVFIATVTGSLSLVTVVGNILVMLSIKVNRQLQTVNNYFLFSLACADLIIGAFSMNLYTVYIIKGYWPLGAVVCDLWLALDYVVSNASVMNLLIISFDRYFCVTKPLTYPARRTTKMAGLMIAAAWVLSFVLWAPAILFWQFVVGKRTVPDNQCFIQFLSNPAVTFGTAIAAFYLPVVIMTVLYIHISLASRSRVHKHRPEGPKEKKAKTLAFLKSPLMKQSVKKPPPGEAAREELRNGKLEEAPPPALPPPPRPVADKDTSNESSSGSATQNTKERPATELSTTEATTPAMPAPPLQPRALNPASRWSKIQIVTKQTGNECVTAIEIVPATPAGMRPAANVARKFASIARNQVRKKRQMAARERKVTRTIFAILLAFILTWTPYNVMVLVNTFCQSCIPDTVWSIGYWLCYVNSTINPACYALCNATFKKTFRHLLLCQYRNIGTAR

[2] = molecular target: Hydroxycarboxylic acid receptor 2 (Homo sapiens, UniProt Q8TDS4)
Note: assay procedure not described here.

Hydroxycarboxylic acid receptor 2, sequence (Q8TDS4 whole entry): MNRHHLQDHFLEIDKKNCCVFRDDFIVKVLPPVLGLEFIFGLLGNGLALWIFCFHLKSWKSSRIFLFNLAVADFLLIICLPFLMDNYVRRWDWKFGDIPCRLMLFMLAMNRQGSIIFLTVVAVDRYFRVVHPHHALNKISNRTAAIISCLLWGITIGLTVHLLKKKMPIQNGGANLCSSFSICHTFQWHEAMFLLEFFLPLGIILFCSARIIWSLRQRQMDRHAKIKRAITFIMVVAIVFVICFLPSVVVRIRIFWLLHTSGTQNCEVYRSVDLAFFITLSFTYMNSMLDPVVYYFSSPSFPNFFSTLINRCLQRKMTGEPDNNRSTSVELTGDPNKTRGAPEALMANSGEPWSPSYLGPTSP

| Compound | AC50 [1] [µM] | AC50 [2] [µM] |
| --- | --- | --- |
| N=C(N)NC(=O)c1nc(Cl)c(N)nc1N [AMILORIDE] | > 10 | – |
| Cc1cnc(C(=O)O)c[n+]1[O-] [ACIPIMOX] | – | 3.9 |

Reference: ChEMBL document CHEMBL5291721, “A preclinical secondary pharmacology resource illuminates target-adverse drug reaction associations of marketed drugs” (Nat Commun, 2023)
